Tests used:
[1] = Gastric tolerability after two weeks oral treatment in L-NAME hypertensive rats; format: in vivo; settings: 10 mg/kg daily for two weeks, hypertension induced by L-NAME 400 mg/liter in drinking water
Description: (§1) The experiment was carried out according to the method described by M. N. Muscarà et al. Br. J. Pharmacol. 133, 1314, 2001, and employing groups of 10 rats weighing each 200-250 g.
(§2) The compounds, suspended in 1% carboxymethylcellulose, were administered orally for two weeks at a daily dose of 10 mg/kg body weight.
(§3) Hypertension was induced by addition of L-NAME (N-omega-nitro-L-arginine methylester) to the drinking water at a concentration of 400 mg/liter. At the end of the treatment, the blood pressure was determined by introduction of a cannula into femoral artery and measurement with polygraphic transducer, 16 hours after the last administration.

[2] = Blood pressure effect after two weeks oral treatment in L-NAME hypertensive rats; format: in vivo; settings: 10 mg/kg daily for two weeks, L-NAME in drinking water, femoral artery cannula, 16 hours after the last administration
Description: as §1, §2, §3

SMILES | gastric tolerability [1] | effect on blood pressure [2] | gastric damage, share of the treated animals [1] | increase of the blood pressure (average) [2]
Cc1ccc(-c2cc(C(F)(F)F)nn2-c2ccc(S(=O)(=O)NC(=O)CCCO[N+](=O)[O-])cc2)cc1 [Example 4, N-[4-[5-(4-methylphenyl)-3-(trifluoromethyl)-1H-pyrazol-1-yl]phenylsulfonyl]-4-nitrooxy-butanamide] | well tolerated | no increase of the blood pressure |  | 
Cc1ccc(-c2cc(C(F)(F)F)nn2-c2ccc(S(N)(=O)=O)cc2)cc1 [celecoxib, 4-[5-(4-methylphenyl)-3-(trifluoromethyl)-1H-pyrazol-1-yl]benzenesulfon-amide] |  |  | 80% | 15 mmHg
